Tested on: compound 48/80-induced lethality
Assay: Protection of rats from compound 48/80-induced lethality
Format: in vivo, rat (male, inbred Wistar strain)
Conditions: Rattus norvegicus; subcutaneous or oral; 1 h before compound 48/80 0.5 mg/kg i.v.; survival after 4 h; dose protecting 50% of animals; read-out: compound 48/80 lethality test in rats-ED50
Protocol: Protection of rats from compound 48/80-induced lethality
The protection from compound 48/80-induced lethal circulatory collapse appears to be a simple way of evaluating quantitatively the antihistaminic activity of test compounds. Male rats of an inbred Wistar strain, weighing 240-260 g were used in the experiment. After overnight starvation the rats were transferred to conditioned laboratories (temp.=21±1° C., relative humidity=65±5%). The rats were treated subcutaneously or orally with a test compound or with the solvent (NaCl solution, 0.9%). One hour after treatment there was injected intravenously compound 48/80, freshly dissolved in water, at a dose of 0.5 mg/kg (0.2 ml/100 g of body weight). […] Survival after 4 hours is therefore considered to be a safe criterion of a protective effect of drug administration. Said ED50 -values are the values in mg/kg body weight at which the tested compounds protect 50% of the tested animals against compound 48/80-induced lethality.

c1coc(Cn2c(NC3CCNCC3)nc3cccnc32)c1 [compound 140, 3-(2-furanylmethyl)-N-(4-piperidinyl)-3H-imidazo[4,5-b]pyridin-2-amine]
ED50: 0.08 mg/kg

Fc1ccc(Cn2c(NC3CCNCC3)nc3cccnc32)cc1 [compound 123]
ED50: 0.08 mg/kg

Cc1ccc(Cn2c(NC3CCNCC3)nc3cccnc32)o1 [compound 166, 3-[(5-methyl-2-furanyl)methyl]-N-(4-piperidinyl)-3H-imidazo[4,5-b]pyridin-2-amine]
ED50: 0.04 mg/kg

Fc1ccc(Cn2c(NC3CCNCC3)nc3ncccc32)cc1 [compound 135]
ED50: 0.01 mg/kg

From US4835161A, “Anti-histaminic compositions containing n-heterocyclyl-4-piperidinamines” (Janssen Pharmaceutica N.V., priority 1987, dated 1989)
